{"source": "paper PMC12592502", "about": "“Unraveling the mechanisms behind the enhanced efficacy of β-lactam-based sideromycins” (Communications Biology, 2025)", "experiment_in_all_cases": "Membrane PBP binding assay, competition with Bocillin FL", "key": {"PBP5 [1]": {"target": "PBP5 (Escherichia coli, UniProt P0AEB2)", "sequence (P0AEB2 30-403)": "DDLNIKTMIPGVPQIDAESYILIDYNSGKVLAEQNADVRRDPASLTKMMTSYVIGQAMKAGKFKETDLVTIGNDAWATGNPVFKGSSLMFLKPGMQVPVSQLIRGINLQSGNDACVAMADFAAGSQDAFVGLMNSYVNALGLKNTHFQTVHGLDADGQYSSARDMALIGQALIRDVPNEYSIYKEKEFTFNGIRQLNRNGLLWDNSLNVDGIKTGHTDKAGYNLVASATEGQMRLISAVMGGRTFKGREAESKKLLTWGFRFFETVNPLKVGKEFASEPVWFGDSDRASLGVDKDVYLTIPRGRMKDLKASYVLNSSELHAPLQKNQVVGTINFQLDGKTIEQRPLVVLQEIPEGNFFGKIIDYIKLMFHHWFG", "settings": "E. coli MC4100 membranes", "method": "(§1) Membrane extracts containing PBPs were obtained as described above. Briefly, all species were grown in 1 L of TSB until the OD600 reached 0.9. The washed pellet was incubated with lysozyme (400 μg/mL), DNase (10 μg/mL) RNase(10 μg/mL) and anti-protease cocktail (200 mg/20 mL). Lysis was done with a French press (20,000 psi) and membrane protein were pelleted by ultracentrifugation steps (100,000 × g). The pellet was suspended in a minimal volume (300–500 μL) of KP 0.05 M buffer at pH 7. The protein concentration in the membrane preparations was determined with the Micro BCA TM Protein Assay Kit (Thermo Fisher Scientific, Rockford, IL) using bovine serum albumin as a standard.\n(§2) The PBP binding assay was done as described previously[36],[56],[57]. For each antibiotic concentration tested, a quantity of 25 to 40 μg of membrane preparation was used as the source of PBPs, depending on the species. […]\n(§3) To be able to visualize labeled PBPs after electrophoresis, gels were rinsed in water and fixed in a solution of 50% methanol and 7% acetic acid for 30 min. […] To obtain quantifiable data, the software Quantity One 1D analysis was used (version 4.6.6; Bio-Rad Laboratories, Richmond, CA). The volume (intensity × constant area) of each PBP was measured. […] The PBP profiles were confirmed, and the PBP numbering were determined using published data and individual molecular weights. […]"}, "PBP5 [2]": {"target": "PBP5 (Klebsiella pneumoniae, UniProt A6T693)", "sequence (A6T693 entry or part of it)": "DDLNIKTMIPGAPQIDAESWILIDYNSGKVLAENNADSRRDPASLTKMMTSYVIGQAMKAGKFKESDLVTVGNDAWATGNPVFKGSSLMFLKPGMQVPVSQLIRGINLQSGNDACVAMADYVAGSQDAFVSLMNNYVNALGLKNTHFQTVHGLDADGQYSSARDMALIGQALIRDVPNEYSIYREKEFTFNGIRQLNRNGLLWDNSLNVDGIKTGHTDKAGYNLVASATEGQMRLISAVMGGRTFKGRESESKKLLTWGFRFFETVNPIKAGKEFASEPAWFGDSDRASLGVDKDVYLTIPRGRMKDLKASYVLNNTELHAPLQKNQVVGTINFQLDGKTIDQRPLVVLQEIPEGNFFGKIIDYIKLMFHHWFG", "settings": "K. pneumoniae ATCC 13883 membranes", "method": "as §1, §2, §3"}, "PBP1a": {"target": "PBP1a (Acinetobacter baumannii, UniProt A0ABX6CK30)", "sequence (A0ABX6CK30 entry or part of it)": "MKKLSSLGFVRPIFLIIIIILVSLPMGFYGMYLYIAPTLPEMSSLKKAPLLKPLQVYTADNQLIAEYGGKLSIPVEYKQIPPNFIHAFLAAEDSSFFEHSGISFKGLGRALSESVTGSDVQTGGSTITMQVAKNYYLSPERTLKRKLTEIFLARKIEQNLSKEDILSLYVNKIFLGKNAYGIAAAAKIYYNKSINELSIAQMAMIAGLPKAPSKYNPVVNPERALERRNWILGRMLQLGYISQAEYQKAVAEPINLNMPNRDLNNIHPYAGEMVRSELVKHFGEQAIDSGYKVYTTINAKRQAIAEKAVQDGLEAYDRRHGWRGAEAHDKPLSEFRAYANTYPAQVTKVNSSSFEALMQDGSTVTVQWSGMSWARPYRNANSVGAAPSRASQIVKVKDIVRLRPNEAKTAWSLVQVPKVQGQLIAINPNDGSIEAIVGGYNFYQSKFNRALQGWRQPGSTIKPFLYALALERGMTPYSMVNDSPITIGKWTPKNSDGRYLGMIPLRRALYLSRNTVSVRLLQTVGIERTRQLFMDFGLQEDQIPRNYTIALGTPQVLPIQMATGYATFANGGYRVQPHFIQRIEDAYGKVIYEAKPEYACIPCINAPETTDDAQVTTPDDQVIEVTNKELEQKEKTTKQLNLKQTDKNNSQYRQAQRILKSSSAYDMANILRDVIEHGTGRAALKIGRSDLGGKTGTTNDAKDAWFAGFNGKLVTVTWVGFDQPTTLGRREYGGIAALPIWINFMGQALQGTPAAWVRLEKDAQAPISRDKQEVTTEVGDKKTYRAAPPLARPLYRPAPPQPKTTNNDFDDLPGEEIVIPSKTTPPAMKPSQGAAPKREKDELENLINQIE", "settings": "A. baumannii ATCC 19606 membranes", "in_short": "(§4)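 Steps: membrane extract (25–40 μg) + test compound, 10 min/30 °C; + Bocillin FL 12.5 μM, 20 min/30 °C; stop in Laemmli buffer, boil, 10% SDS-PAGE; fluorescence scan, 473 nm ex.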"}, "PBP1b [3]": {"target": "PBP1b (Acinetobacter baumannii, UniProt A0ABX6CHI7)", "settings": "A. baumannii ATCC 19606 membranes", "in_short": "as §4"}, "PBP1b [4]": {"target": "PBP1b (Pseudomonas aeruginosa, UniProt G3XD31)", "sequence (G3XD31 entry or part of it)": "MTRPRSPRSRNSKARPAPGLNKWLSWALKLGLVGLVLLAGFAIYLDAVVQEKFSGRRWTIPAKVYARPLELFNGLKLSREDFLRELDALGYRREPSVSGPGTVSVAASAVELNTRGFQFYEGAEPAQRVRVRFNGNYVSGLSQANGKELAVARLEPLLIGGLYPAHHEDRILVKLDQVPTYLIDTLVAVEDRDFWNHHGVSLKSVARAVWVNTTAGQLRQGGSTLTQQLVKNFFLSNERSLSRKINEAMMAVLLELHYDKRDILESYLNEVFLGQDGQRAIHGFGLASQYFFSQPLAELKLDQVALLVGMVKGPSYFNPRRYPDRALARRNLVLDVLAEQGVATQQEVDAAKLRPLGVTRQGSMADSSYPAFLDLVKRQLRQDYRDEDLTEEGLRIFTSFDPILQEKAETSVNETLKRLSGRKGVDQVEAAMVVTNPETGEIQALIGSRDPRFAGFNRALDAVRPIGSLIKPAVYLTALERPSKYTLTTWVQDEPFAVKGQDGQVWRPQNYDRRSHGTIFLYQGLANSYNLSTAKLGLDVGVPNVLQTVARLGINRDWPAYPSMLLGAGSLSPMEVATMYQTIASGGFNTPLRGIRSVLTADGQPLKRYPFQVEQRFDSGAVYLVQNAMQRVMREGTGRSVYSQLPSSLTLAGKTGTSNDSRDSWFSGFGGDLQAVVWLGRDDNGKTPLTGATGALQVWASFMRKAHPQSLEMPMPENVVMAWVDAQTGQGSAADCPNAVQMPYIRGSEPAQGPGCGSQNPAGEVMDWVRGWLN", "settings": "P. aeruginosa ATCC 27853 membranes", "in_short": "as §4"}, "PBP3 [5]": {"target": "PBP3 (Acinetobacter baumannii, UniProt A0ABX6CK25)", "sequence (A0ABX6CK25 1-610)": "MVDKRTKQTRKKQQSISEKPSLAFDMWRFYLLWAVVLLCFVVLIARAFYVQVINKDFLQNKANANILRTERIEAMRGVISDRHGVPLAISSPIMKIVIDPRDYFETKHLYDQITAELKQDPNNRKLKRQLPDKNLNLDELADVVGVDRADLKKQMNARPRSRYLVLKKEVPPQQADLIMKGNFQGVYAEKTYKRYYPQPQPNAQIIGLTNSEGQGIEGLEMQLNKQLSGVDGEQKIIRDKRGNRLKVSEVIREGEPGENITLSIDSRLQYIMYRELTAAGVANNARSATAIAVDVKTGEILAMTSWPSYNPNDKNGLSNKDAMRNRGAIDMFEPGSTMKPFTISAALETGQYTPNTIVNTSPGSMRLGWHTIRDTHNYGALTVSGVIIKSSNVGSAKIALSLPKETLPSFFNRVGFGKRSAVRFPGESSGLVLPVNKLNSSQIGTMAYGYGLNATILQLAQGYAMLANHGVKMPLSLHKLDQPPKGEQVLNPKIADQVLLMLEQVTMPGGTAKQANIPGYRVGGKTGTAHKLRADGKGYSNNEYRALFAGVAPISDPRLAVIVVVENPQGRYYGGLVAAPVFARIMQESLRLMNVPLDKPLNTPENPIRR", "settings": "A. baumannii ATCC 19606 membranes", "in_short": "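Membrane extracts (25 to 40 μg) preincubated with increasing antibiotic concentrations 10 min at 30 °C, then labelled with 12.5 μM Bocillin FL for 20 min at 30 °C. PBPs resolved by SDS-PAGE, fluorescence band volumes quantified; IC50 by linear regression from at least two independent assays.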"}, "PBP3 [6]": {"target": "PBP3 (Klebsiella pneumoniae, UniProt A0A0H3GN85)", "sequence (A0A0H3GN85 entry or part of it)": "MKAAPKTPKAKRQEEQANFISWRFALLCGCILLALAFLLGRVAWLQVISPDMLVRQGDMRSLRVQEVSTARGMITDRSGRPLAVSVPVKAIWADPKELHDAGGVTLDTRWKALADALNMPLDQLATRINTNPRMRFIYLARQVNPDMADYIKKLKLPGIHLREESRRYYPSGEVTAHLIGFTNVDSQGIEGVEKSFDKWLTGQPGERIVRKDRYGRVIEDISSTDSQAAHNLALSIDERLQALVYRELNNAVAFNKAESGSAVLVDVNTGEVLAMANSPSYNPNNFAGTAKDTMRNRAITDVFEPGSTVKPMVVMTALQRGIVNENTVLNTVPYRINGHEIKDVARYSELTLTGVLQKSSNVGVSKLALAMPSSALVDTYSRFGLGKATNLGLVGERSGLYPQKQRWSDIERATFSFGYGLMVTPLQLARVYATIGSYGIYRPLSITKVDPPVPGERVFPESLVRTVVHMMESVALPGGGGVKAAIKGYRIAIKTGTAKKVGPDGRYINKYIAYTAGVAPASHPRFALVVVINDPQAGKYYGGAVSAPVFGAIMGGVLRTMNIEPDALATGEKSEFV", "settings": "K. pneumoniae ATCC 13883 membranes", "in_short": "as §4"}, "PBP4": {"target": "PBP4 (Klebsiella pneumoniae, UniProt A0ACD7U7I2)", "settings": "K. pneumoniae ATCC 13883 membranes", "in_short": "as §4"}, "PBP5 [7]": {"target": "PBP5 (Pseudomonas aeruginosa, UniProt G3XD74)", "sequence (G3XD74 entry or part of it)": "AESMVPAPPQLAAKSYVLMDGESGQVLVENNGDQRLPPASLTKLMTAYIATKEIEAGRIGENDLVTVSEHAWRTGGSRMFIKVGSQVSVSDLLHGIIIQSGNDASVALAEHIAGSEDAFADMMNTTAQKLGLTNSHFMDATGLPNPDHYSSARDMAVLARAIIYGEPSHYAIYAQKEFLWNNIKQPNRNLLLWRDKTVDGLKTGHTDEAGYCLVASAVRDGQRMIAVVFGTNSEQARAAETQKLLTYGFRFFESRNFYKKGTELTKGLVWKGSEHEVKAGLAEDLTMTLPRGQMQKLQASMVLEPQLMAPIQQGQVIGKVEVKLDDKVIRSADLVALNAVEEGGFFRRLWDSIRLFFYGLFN", "settings": "P. aeruginosa ATCC 27853 membranes", "in_short": "as §4"}}}
{"smiles": "N[C@@H](C(=O)N[C@@H]1C(=O)N2C(C(=O)O)=C(Cl)CC[C@H]12)c1ccccc1", "note": "[LOR, loracarbef, reference compound]", "values": [{"measurement": "IC50", "setting": "PBP5 [1]", "value": "> 50", "unit": "µM"}, {"measurement": "IC50", "setting": "PBP5 [2]", "value": "> 50", "unit": "µM"}, {"measurement": "IC50", "setting": "PBP1a", "value": "> 50", "unit": "µM"}, {"measurement": "IC50", "setting": "PBP1b [3]", "value": "> 50", "unit": "µM"}, {"measurement": "IC50", "setting": "PBP1b [4]", "value": "1.8 ± 0.5", "unit": "µM"}, {"measurement": "IC50", "setting": "PBP3 [5]", "value": "7.8 ± 0.8", "unit": "µM"}, {"measurement": "IC50", "setting": "PBP3 [6]", "value": "4.1 ± 2.4", "unit": "µM"}, {"measurement": "IC50", "setting": "PBP4", "value": "1.03 ± 0.72", "unit": "µM"}, {"measurement": "IC50", "setting": "PBP5 [7]", "value": "> 50", "unit": "µM"}]}
